Data reported in patent US9303042B2, “Triazolothienopyrimidine compound inhibitors of urea transporters and methods of using inhibitors” (The Regents of the University of California, priority 2012, dated 2016).
Like-named read-outs stand apart in the source and are kept apart here.

Key:
CFTR = biological target: T1, CFTR (Homo sapiens, UniProt P13569); experiment: CFTR chloride conductance by short-circuit current; assay type: cell-based; settings: 20 μM
T1 construct: expressed in transfected cells

mice = experiment: Urinary concentration in mice; assay type: in vivo, mouse
Description: In some studies, mice were placed on low, normal or […] diets (4%, 20% or 40% casein, Harlan Labs.) for 1 week prior study of dDAVP effects. […] Urea concentration was determined by a colorimetric enzymatic assay as described above. Measurements were also done in the absence of dDAVP in which urine was collected during free access to food and water. […]

[1] = In vitro metabolic stability in hepatic microsomes; assay type: in vitro ADME, rat; settings: for % Remaining after 10 min incubation with liver microsomes: compound 5 μM; for % Remaining: parent molecule after 30 min incubation with rat liver microsomes
Description: Compounds, each at 5 μM, were incubated for specified times at 37° C. with rat liver microsomes (1 mg protein/ml; Sigma-Aldrich, St. Louis, Mo.) in potassium phosphate buffer (100 mM) containing 1 mM NADPH. The mixture was then chilled on ice, and 0.5 ml of ice-cold ethyl acetate was added.

UT-B = biological target: T2, UT-B (Mus musculus, UniProt Q8VHL0); experiment: Erythrocyte lysis assay of UT-B inhibition; assay type: cell-based; design: Screening was performed using mouse erythrocytes, which strongly express UT-B; endogenous in cells; host or cells: erythrocytes in whole blood of wild-type CD1 mice; settings: read-out: IC50
T2 sequence (Q8VHL0 1-384): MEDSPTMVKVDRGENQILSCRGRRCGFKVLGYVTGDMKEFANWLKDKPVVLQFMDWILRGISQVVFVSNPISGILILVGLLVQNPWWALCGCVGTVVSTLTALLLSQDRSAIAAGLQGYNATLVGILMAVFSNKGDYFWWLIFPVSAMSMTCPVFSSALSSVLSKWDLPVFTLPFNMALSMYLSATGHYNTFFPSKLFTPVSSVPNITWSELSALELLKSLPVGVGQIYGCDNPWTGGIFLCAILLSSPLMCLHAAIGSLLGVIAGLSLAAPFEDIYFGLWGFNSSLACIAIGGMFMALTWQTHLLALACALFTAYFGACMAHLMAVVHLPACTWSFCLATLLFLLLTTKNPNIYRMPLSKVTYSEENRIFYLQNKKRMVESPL
Description: Screening was performed using mouse erythrocytes, which strongly express UT-B and are highly water permeable because the cells also express aquaporin-1 (AQP1) water channels. The screening method involved assay of erythrocyte lysis in response to a large, outwardly directed gradient of acetamide, a urea analog that is transported efficiently by UT-B. A large, outwardly directed gradient of acetamide causes transient cell swelling, but little cell lysis, because UT-B-facilitated acetamide efflux limits water influx (see FIG. 1A). UT-B inhibition prevents acetamide efflux, allowing unopposed cell swelling and consequent cell lysis, which was recorded by reduced near-infrared light absorption at 710 nm.
Primary screening was done using a collection of 100,000 diverse, drug-like compounds from commercial sources (ChemDiv, San Diego, Calif.; Asinex, Winston-Salem, N.C.). […] Vigorous mixing was achieved by repeated pipetting. Erythrocyte lysis was quantified by absorbance at 710 nm wavelength, made within 5 min after hypo-osmolar shock. […] For analysis of structure-activity relationships >900 commercially available analogs (ChemDiv and Asinex) were tested.

[2] = LC/MS analysis of compound in mouse kidney, blood and urine; settings: for many hours after intraperitoneal bolus 400 μg
Description: In some studies, mice were placed on low, normal or […] diets (4%, 20% or 40% casein, Harlan Labs.) for 1 week prior study of dDAVP effects. […] Urea concentration was determined by a colorimetric enzymatic assay as described above. Measurements were also done in the absence of dDAVP in which urine was collected during free access to food and water.
Kidneys were weighed, mixed with acetic acid (100 μL per 1 g tissue) and ethyl acetate (10 mL per 1 g tissue), and homogenized.

[3] = Table 1, commercially available analogues, erythrocyte lysis assay
[4] = Table 2, synthesized inhibitors, red blood cell lysis assay (n = 3), single-site saturation model

T1 sequence (P13569 whole entry): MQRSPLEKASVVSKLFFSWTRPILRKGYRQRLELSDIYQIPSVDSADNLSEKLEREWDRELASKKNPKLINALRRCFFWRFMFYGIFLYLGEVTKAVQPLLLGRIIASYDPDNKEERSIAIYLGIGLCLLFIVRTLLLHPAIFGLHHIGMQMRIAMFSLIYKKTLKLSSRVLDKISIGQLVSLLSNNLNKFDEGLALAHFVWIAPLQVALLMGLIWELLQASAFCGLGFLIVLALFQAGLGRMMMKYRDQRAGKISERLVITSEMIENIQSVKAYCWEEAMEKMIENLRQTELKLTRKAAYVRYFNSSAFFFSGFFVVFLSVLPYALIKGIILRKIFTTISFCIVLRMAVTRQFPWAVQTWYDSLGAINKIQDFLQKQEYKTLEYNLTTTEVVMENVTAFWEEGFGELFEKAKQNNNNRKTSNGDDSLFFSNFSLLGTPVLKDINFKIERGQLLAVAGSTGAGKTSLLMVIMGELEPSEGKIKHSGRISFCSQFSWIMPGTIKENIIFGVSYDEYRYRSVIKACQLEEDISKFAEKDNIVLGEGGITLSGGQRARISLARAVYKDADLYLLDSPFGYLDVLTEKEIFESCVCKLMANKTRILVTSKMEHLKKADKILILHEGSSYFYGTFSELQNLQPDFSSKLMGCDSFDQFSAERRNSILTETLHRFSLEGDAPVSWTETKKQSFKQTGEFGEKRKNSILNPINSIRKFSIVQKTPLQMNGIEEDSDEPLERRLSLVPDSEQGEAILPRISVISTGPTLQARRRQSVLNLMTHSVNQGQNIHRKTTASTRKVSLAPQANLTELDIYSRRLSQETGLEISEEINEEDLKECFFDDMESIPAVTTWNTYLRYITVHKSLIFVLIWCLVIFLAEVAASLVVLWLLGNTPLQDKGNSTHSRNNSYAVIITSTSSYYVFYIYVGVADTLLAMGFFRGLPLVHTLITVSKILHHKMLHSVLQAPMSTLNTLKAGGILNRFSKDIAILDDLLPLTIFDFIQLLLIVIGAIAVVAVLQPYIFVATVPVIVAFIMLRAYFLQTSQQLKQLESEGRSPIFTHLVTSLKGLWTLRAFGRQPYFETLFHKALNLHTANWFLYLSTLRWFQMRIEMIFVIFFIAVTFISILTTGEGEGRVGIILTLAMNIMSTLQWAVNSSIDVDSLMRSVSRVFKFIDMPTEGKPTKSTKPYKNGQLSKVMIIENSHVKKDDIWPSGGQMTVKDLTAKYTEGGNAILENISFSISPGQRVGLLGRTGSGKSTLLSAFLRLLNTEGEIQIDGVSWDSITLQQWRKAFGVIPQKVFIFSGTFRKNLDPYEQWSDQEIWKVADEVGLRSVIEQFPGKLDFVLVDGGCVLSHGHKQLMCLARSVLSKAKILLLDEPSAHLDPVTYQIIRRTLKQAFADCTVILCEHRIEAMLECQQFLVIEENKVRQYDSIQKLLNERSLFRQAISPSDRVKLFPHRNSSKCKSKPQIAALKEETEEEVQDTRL

Compound | % Remaining after 10 min incubation with liver microsomes ([1]; NADPH) | IC50 (UT-B; [3]) | further results
CFTRinh-172 [reference compound] | – | – | CFTR chloride current (CFTR): blocked
[1-deamino-8-D-arginine]-vasopressin [dDAVP, reference compound] | – | – | urine osmolality after dDAVP (mice; control (formulation alone) mice): > 3 Osm/kg H2O; urine osmolality following dDAVP (mice; dDAVP 1 μg/kg intraperitoneal, over several hours): > 3000 mosm/kg H2O
CC(C)c1ccc(S(=O)(=O)c2nnn3c2nc(NCc2cccc4ccccc24)c2sccc23)cc1 [Compound 3j, [3-(4-Isopropyl-benzenesulfonyl)-thieno[2,3-e][1,2,3]triazolo[1,5-a]pyrimidin-5-yl]-naphthalen-1-ylmethyl-amine] | – | – | % Remaining [1]: 45%; IC50 (UT-B; [4]): > 2500 nM
CCCCNc1nc2c(S(=O)(=O)c3ccc(C(C)C)cc3)nnn2c2ccsc12 [Compound 2bm] | <2% | 191 nM | –
O=S(=O)(c1ccc(C(F)(F)F)cc1)c1nnn2c1nc(NCc1cccs1)c1sccc12 [Compound 3c, Thiophen-2-ylmethyl-[3-(4-trifluoromethyl-benzenesulfonyl)-thieno[2,3-e][1,2,3]triazolo[1,5-a]pyrimidin-5-yl]-amine] | – | – | metabolic stability (in words) ([1]; hepatic microsomes): improved metabolic stability; % Remaining [1]: 99%; IC50 (UT-B; [4]): 537 nM
CC(F)(F)c1ccc(S(=O)(=O)c2nnn3c2nc(NCc2cccs2)c2sccc23)cc1 [Compound 3k, {3-[4-(1,1-Difluoro-ethyl)-benzenesulfonyl]-thieno[2,3-e][1,2,3]triazolo[1,5-a]pyrimidin-5-yl}-thiophen-2-ylmethyl-amine] | – | – | t1/2 for disappearance in hepatic microsomes ([1]; hepatic microsomes, NADPH): approximately 120 min; % Remaining [1]: 96%; stability in vitro compared to UTBinh 14 ([1]; ratio of microsomal t1/2): approximately 40 fold; concentrations in blood, kidney and urine [2]: < 1000 nM; reduction of urine osmolality (mice; 400 μg intraperitoneal, dDAVP 1 h later, vs formulation alone): approximately 0.5 Osm/kg H2O
O=S(=O)(c1ccc(Cl)cc1)c1nnn2c1nc(NCc1cccs1)c1sccc12 [Compound 2bi, {3-[4-chloro-benzenesulfonyl]-thieno[2,3-e][1,2,3]triazolo[1,5-a]pyrimidin-5-yl}-thiophen-2-ylmethyl-amine] | 52% | 214 nM | –
CCc1ccc(S(=O)(=O)c2nnn3c2nc(NCc2ccccc2)c2sccc23)cc1 [Compound 2br, [3-(4-ethyl-benzenesulfonyl)-thieno[2,3-e][1,2,3]triazolo[1,5-a]pyrimidin-5-yl]-benzyl-amine] | 44% | 664 nM | –
CCCCNc1nc2c(S(=O)(=O)c3ccc(Br)cc3)nnn2c2ccsc12 [Compound 2cu] | 76% | 1900 nM | –
O=S(=O)(c1ccc(Cl)cc1)c1nnn2c1nc(NCc1ccco1)c1sccc12 [Compound 2bf, furan-2-ylmethyl-[3-(4-chloro-benzenesulfonyl)-thieno[2,3-e][1,2,3]triazolo[1,5-a]pyrimidin-5-yl]-amine] | 21% | 1870 nM | –
COCCNc1nc2c(S(=O)(=O)c3ccc(Br)cc3)nnn2c2ccsc12 [Compound 2ct] | 53% | 959 nM | –
CCc1ccc(S(=O)(=O)c2nnn3c2nc(NCc2ccco2)c2sccc23)cc1 [Compound 2bp, furan-2-ylmethyl-[3-(4-ethyl-benzenesulfonyl)-thieno[2,3-e][1,2,3]triazolo[1,5-a]pyrimidin-5-yl]-amine] | 12% | – | IC50 (UT-B; erythrocyte lysis assay): 239 nM
CCc1ccc(S(=O)(=O)c2nnn3c2nc(N(CC)CC)c2sccc23)cc1 [Compound 2bs] | 6% | 1770 nM | –

Further lines, with some results ahead:

% Remaining after 10 min incubation with liver microsomes ([1]; NADPH) | IC50 (UT-B; [3]) | Compound | further results
29% | 1190 nM | COCCNc1nc2c(S(=O)(=O)c3cc(C)ccc3C)nnn2c2ccsc12 [Compound 2co, {3-[2,5-dimethyl-benzenesulfonyl]-thieno[2,3-e][1,2,3]triazolo[1,5-a]pyrimidin-5-yl}-2-methoxyethyl-amine] | –
80% | 1660 nM | COc1ccc(CNc2nc3c(S(=O)(=O)c4ccc(C)cc4)nnn3c3ccsc23)cc1 [Compound 2ad, [3-(4-methyl-benzenesulfonyl)-thieno[2,3-e][1,2,3]triazolo[1,5-a]pyrimidin-5-yl]-(4-methoxy-benzyl)-amine] | metabolic stability (in words) ([1]; hepatic microsomes): improved metabolic stability
2% | 520 nM | CCOCCCNc1nc2c(S(=O)(=O)c3ccc(C)c(C)c3)nnn2c2ccsc12 [Compound 2aw, {3-[3,4-dimethyl-benzenesulfonyl]-thieno[2,3-e][1,2,3]triazolo[1,5-a]pyrimidin-5-yl}-3-ethoxylpropyl-amine] | –
26% | 1400 nM | COCCCNc1nc2c(S(=O)(=O)c3cc(C)ccc3C)nnn2c2ccsc12 [Compound 2cr, {3-[2,5-dimethyl-benzenesulfonyl]-thieno[2,3-e][1,2,3]triazolo[1,5-a]pyrimidin-5-yl}-3-methoxypropyl-amine] | –
<2% | 37 nM | Cc1ccc(S(=O)(=O)c2nnn3c2nc(NCc2cccs2)c2sccc23)cc1C [Compound 2bd, {3-[3,4-dimethyl-benzenesulfonyl]-thieno[2,3-e][1,2,3]triazolo[1,5-a]pyrimidin-5-yl}-thiophen-2-ylmethyl-amine] | –
<2% | 156 nM | Cc1ccc(S(=O)(=O)c2nnn3c2nc(NCc2ccco2)c2sccc23)cc1C [Compound 2am, furan-2-ylmethyl-[3-(3,4-dimethyl-benzenesulfonyl)-thieno[2,3-e][1,2,3]triazolo[1,5-a]pyrimidin-5-yl]-amine] | –
<2% | 334 nM | CCc1ccc(S(=O)(=O)c2nnn3c2nc(NCCOC)c2sccc23)cc1 [Compound 2by, {3-[4-ethyl-benzenesulfonyl]-thieno[2,3-e][1,2,3]triazolo[1,5-a]pyrimidin-5-yl}-2-methoxyethyl-amine] | –
